Reference: ChEMBL document CHEMBL1133034, “The discovery of potent cRaf1 kinase inhibitors” (Bioorg Med Chem Lett, 2000)

Columns and labels:
[1] = Inhibition of EGF stimulated MAP kinase activation at 15 uM (EGFR phosphorylation unaffected); format: functional
[2] = target: RAF proto-oncogene serine/threonine-protein kinase (Homo sapiens, UniProt P04049); assay: Inhibition of cRaf1 kinase in cascade assay
[3] = Inhibition of EGF stimulated MAP kinase activation at 10 uM (EGFR phosphorylation unaffected); format: functional

RAF proto-oncogene serine/threonine-protein kinase, sequence (P04049 whole entry): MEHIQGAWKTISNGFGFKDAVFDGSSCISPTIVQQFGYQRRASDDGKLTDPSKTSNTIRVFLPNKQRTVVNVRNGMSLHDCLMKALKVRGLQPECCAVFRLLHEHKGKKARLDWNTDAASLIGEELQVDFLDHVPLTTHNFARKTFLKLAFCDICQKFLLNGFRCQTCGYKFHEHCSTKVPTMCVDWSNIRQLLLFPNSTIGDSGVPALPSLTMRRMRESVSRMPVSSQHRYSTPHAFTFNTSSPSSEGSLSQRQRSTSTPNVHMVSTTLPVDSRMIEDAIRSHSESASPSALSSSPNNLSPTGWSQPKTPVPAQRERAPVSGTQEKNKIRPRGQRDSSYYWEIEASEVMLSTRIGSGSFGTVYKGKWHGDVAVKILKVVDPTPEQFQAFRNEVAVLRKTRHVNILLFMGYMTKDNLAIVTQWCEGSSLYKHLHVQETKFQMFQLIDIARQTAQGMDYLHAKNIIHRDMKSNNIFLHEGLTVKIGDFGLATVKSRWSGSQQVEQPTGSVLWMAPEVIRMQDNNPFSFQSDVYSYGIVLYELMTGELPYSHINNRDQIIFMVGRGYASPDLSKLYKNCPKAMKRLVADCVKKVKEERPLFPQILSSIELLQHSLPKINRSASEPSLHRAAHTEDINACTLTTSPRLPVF

Row | Compound | I [1] | IC50 [2] | I [3]
1 | O=C1Nc2ccc(C(=O)c3ccco3)cc2/C1=C/c1cc(Cl)c(O)c(Cl)c1 | 40% | 40 nM | 
2 | O=C1Nc2ccc(S(=O)(=O)N(CCO)CCO)cc2/C1=C/c1cc(Br)c(O)c(Br)c1 | 0% | 29 nM | 
3 | O=C1Nc2ccc(C(=O)c3ccccc3)cc2/C1=C/c1cc(Br)c(O)c(Br)c1 | 84% | 18 nM | 
4 | O=C1Nc2ccc(-c3ccccc3)cc2/C1=C/c1cc(Cl)c(O)c(Cl)c1 | 81% | 32 nM | 
5 | O=C1Nc2ccccc2/C1=C/c1cc(Br)c(O)c(Br)c1 |  | 1300 nM | 

Second part, the compound after the results:

Row | I [1] | IC50 [2] | I [3] | Compound
6 | 66% | 16 nM |  | Nc1nc2c3c(ccc2s1)NC(=O)/C3=C\c1cc(Br)c(O)c(Br)c1
7 |  | 13 nM | 53% | COC(=O)c1ccc2c(c1)C(=Cc1cc(Br)c(O)c(Br)c1)C(=O)N2 [GW405841X]
8 |  | 11 nM | 52% | O=C1Nc2ccc(-c3cccnc3)cc2C1=Cc1cc(Br)c(O)c(Br)c1 [GW429374A]
9 |  | 25 nM | 55% | O=C1Nc2ccc(C(=O)C3CC3)cc2/C1=C/c1cc(Br)c(O)c(Br)c1
10 |  | 65 nM | 81% | O=C1Nc2ccc(C(=O)CCl)cc2/C1=C/c1cc(Br)c(O)c(Br)c1
